# Target: ALS enzyme extracted from Mutant 2 (heterozygous)
# Test: ALS enzyme assay, heterozygous Mutant 2
# Format: biochemical, Zea mays
# Settings: ALS of heterozygous Mutant 2; read-out: ID50% (the source's name)
# Protocol: (§1) Seeds of generation M₁BC₁ M₁BC₂ of the nine mutants were sprayed pre-emergence with the herbicide imazethapyr (PURSUIT) (Trade Mark) at a rate of 250 g/ha and grown in a growth chamber (16 hour day, 27°C; 8 hour night, 17°C). Plants were harvested after 11 days.
# (§2) Four grams of leaf material were harvested from just above the first leaf axis and ground in a mortar and pestle in 20ml of a solution containing 40mM Tricine (Trade Mark), 10mM EDTA, 5mM pyruvate, 80 »M flavin adenine dinucleotide (FAD), 1mM dithiothreitol (DTT), pH 8, plus 0.8g Polyclar AT. The homogenate was pressed through four layers of muslin and centrifuged at 30,000g for 20 minutes.
# (§3) The supernatant was brought to 65% saturation with ammonium sulphate, left to precipitate for 30 minutes and then centrifuged at 30.000g for 20 minutes. The pellet was resuspended in 2.5ml of 40mM Tricine, 10mM EDTA, 5mM pyruvate, 80»M FAD, 25% (v/v) glycerol, 1mM DTT, pH 8, and desalted into 3.5ml of 40mM Tricine, 10mM EDTA, 25% (v/v) glycerol, 1mM DTT, pH 8.
# (§4) One hundred microlitres of the enzyme extract was used for each assay. Final reagent concentrations were: 120mM Tricine, 50mM pyruvate, 10mM MgCl₂, […], 93»M thiamine pyrophosphate (TPP), pH 8, in the presence or absence of a herbicide of interest, in a volume of 750 »l. Incubations were carried out at 37°C for 30 minutes. Reactions were stopped with 250»l of 1.84M sulphuric acid, and decarboxylation of the acetolactate carried out at 37°C for 75 minutes, or at 60°C for 30 minutes. Assay blanks had sulphuric acid added prior to the enzyme extract. To the samples and blanks 650»l of α-naphthol in 2.73M NaOH/0.16%(w/v) creatine were added followed by incubation at 37°C for 30 minutes. After centrifugation at 30,000g the optical density of the supernatant was read at 540nm.
# (§5) The assay procedure described was carried out on ALS enzyme extracted from each of the nine mutants for the following herbicides: imazethapyr (PURSUIT) imazapyr (ARSENAL) imazaquin (SCEPTER) chlorsulfuron (GLEAN) chlorimuron (CLASSIC) […] (HARMONY) The enzyme activity graphs are given as Figures 3 to 8. In addition, homozygous lines of mutants 1 and 2 which were selected from generation M₁BC₁S₂, were also tested against the same group of herbicides and against representatives of the triazolopyrimidines and phenoxypyrimidines. The chemical structures of these herbicides are shown in Figure 2 of the accompanying drawings.
# (§6) From the enzyme assay data it is possible to derive, as a measure of the degree of inhibition the factor ID50% for each mutant and for each herbicide. This factor is indicative of the herbicide concentration which gives 50% inhibition of the ALS activity in comparison with the wild-type control. It is also possible to derive the fold increase in resistance.
row,SMILES,IC50 [nM]
1,"COc1cc(Cl)nc(NC(=O)NS(=O)(=O)c2ccccc2C(=O)O)n1 [Chlorimuron, chlorimuron]",10
2,"COc1nc(C)nc(NC(=O)NS(=O)(=O)c2ccccc2Cl)n1 [Chlorsulfuron, chlorsulfuron]",65

# Same assay, conditions: Mutant 2; groups Strong, Intermediate, Weak, Zero
row,SMILES,"resistance group, Enzyme Assay"
1,"COc1cc(Cl)nc(NC(=O)NS(=O)(=O)c2ccccc2C(=O)O)n1 [Chlorimuron, chlorimuron]",Weak
2,"COc1nc(C)nc(NC(=O)NS(=O)(=O)c2ccccc2Cl)n1 [Chlorsulfuron, chlorsulfuron]",Weak

# Same assay, conditions: fold increase in resistance vs wild type, heterozygous Mutant 2; 30 min
row,SMILES,Fold Increase
1,"COc1cc(Cl)nc(NC(=O)NS(=O)(=O)c2ccccc2C(=O)O)n1 [Chlorimuron, chlorimuron]",3
2,"COc1nc(C)nc(NC(=O)NS(=O)(=O)c2ccccc2Cl)n1 [Chlorsulfuron, chlorsulfuron]",4

# System: Mutant 6 plants
# Test: Cross-resistance testing (glasshouse dose response), Mutant 6
# Format: in vivo, Zea mays
# Settings: pre-emergence spray, assessed after four weeks growth
# Text: (§7) The seeds used in this screen were populations of mixed tolerant and sensitive seed, segregating 1:1, derived from each of the heterogygous, tolerant mutants crossed with homozygous, sensitive UE95. All of the tolerant progeny are heterozygous for tolerance. Each of the mutants identified above were used except mutant 4. The controls were seed of self-pollinated UE95 which was pollinated in the same year as the tolerant lines.
# (§8) One litre of compost was placed in each seed tray of dimensions 19cm x 11cm x 5cm deep and firmed down flat. Two furrows 1 cm deep were drawn in the surface of the compost in each tray and six seeds were sown in each furrow (total twelve seeds per tray). Some trays were sown with 24 seeds, in which case three furrows were made and 8 seeds sown per furrow.
# (§9) In each test each tray contained either the seed of one mutant or of the UE95 control for each herbicide application rate and for the untreated control.
# (§10) Five different types of ALS-inhibitor herbicides were tested on the mutants plus imazethapyr (PURSUIT) as a comparison. Four rates of each were applied; approximately 0.1x, 0.5x, 1x and 4x the estimated field rates for each herbicide. The rates are the same for mutant 3 to 10 but higher rates for chlorimuron (CLASSIC) and lower rates for chlorsulfuron (GLEAN) were applied to mutants 1 and 2.
# (§11) The rates of application used in the screening tests were as follows: chlorimuron (CLASSIC) 4,20,40,160 g/Ha (mutants 1 and 2); and, 8,40,80,320 g/Ha (mutants 3 to 10); chlorsulfuron (GLEAN) 5,25,50,200 g/Ha (mutants 1 and 2); and, 1,5,10,40 g/Ha (mutants 3 to 10); imazaquin (SCEPTER) 30,150,300,1200 g/Ha; triazolopyrimidine 5,25,50,200 g/Ha; phenoxypyrimidine 10,50,100,400 g/Ha; and, imazethapyr (PURSUIT) 30,150,300,1200 g/Ha The triazolopyrimidine and phenoxypyrimidine were formulated in an adjuvant wetting agent known as JF5969 and diluted with water to make a final concentration of 10% JF5969. The remaining compounds were diluted with water only.
# (§12) The spray jet and parameters were as decribed above under "SCREENING". After spraying, the seeds were covered with 0.5 litre of compost and firmed down flat (2.5cm covering) and grown under the conditions described under "SCREENING" above.
# (§13) Visual assessments were made of the plants after four weeks growth. Each plant was scored on a scale of zero to 5 and the height measured from soil surface to the tallest leaf tip. The scoring scale was as follows: 0 - 0 to 10% damage (little or no herbicidal effect) 1 - 11 to 25% damage 2 - 26 to 50% damage 3 - 51 to […] 4 - 81 to 95% damage 5 - 96 to 100% damage (complete death of the plant) In carrying out these assessments, plants which were obviously of the sensitive phenotype were ignored (approximately 50% of the plants). […]
row,SMILES,"resistance group, Dose Response"
1,"COc1cc(Cl)nc(NC(=O)NS(=O)(=O)c2ccccc2C(=O)O)n1 [Chlorimuron, chlorimuron]",Zero
2,"COc1nc(C)nc(NC(=O)NS(=O)(=O)c2ccccc2Cl)n1 [Chlorsulfuron, chlorsulfuron]",Zero

# Target: ALS enzyme extracted from Mutant 3 (heterozygous)
# Test: ALS enzyme assay, heterozygous Mutant 3
# Format: biochemical, Zea mays
# Settings: ALS of heterozygous Mutant 3; read-out: ID50% (the source's name)
# Protocol: as §1, §2, §3, §4, §5, §6
row,SMILES,IC50 [nM]
1,"COc1cc(Cl)nc(NC(=O)NS(=O)(=O)c2ccccc2C(=O)O)n1 [Chlorimuron, chlorimuron]",15
2,"COc1nc(C)nc(NC(=O)NS(=O)(=O)c2ccccc2Cl)n1 [Chlorsulfuron, chlorsulfuron]",35

# Same assay, conditions: Mutant 3; groups Strong, Intermediate, Weak, Zero
row,SMILES,"resistance group, Enzyme Assay"
1,"COc1cc(Cl)nc(NC(=O)NS(=O)(=O)c2ccccc2C(=O)O)n1 [Chlorimuron, chlorimuron]",Weak
2,"COc1nc(C)nc(NC(=O)NS(=O)(=O)c2ccccc2Cl)n1 [Chlorsulfuron, chlorsulfuron]",Weak

# Same assay, conditions: fold increase in resistance vs wild type, heterozygous Mutant 3; 30 min
row,SMILES,Fold Increase
1,"COc1cc(Cl)nc(NC(=O)NS(=O)(=O)c2ccccc2C(=O)O)n1 [Chlorimuron, chlorimuron]",4
2,"COc1nc(C)nc(NC(=O)NS(=O)(=O)c2ccccc2Cl)n1 [Chlorsulfuron, chlorsulfuron]",2

# Target: ALS enzyme extracted from Mutant 1 (heterozygous)
# Test: ALS enzyme assay, heterozygous Mutant 1
# Format: biochemical, Zea mays
# Settings: ALS of heterozygous Mutant 1; read-out: ID50% (the source's name)
# Protocol: as §1, §2, §3, §4, §5, §6
row,SMILES,IC50 [nM]
1,"COc1cc(Cl)nc(NC(=O)NS(=O)(=O)c2ccccc2C(=O)O)n1 [Chlorimuron, chlorimuron]",5
2,"COc1nc(C)nc(NC(=O)NS(=O)(=O)c2ccccc2Cl)n1 [Chlorsulfuron, chlorsulfuron]",65

# Same assay, conditions: Mutant 1; groups Strong, Intermediate, Weak, Zero
row,SMILES,"resistance group, Enzyme Assay"
1,"COc1cc(Cl)nc(NC(=O)NS(=O)(=O)c2ccccc2C(=O)O)n1 [Chlorimuron, chlorimuron]",Weak
2,"COc1nc(C)nc(NC(=O)NS(=O)(=O)c2ccccc2Cl)n1 [Chlorsulfuron, chlorsulfuron]",Weak

# Same assay, conditions: fold increase in resistance vs wild type, heterozygous Mutant 1; 30 min
row,SMILES,Fold Increase
1,"COc1cc(Cl)nc(NC(=O)NS(=O)(=O)c2ccccc2C(=O)O)n1 [Chlorimuron, chlorimuron]",1
2,"COc1nc(C)nc(NC(=O)NS(=O)(=O)c2ccccc2Cl)n1 [Chlorsulfuron, chlorsulfuron]",4

# Target: ALS enzyme extracted from Mutant 5 (heterozygous)
# Test: ALS enzyme assay, heterozygous Mutant 5
# Format: biochemical, Zea mays
# Settings: ALS of heterozygous Mutant 5; read-out: ID50% (the source's name)
# Protocol: as §1, §2, §3, §4, §5, §6
row,SMILES,IC50 [nM]
1,"COc1cc(Cl)nc(NC(=O)NS(=O)(=O)c2ccccc2C(=O)O)n1 [Chlorimuron, chlorimuron]",17
2,"COc1nc(C)nc(NC(=O)NS(=O)(=O)c2ccccc2Cl)n1 [Chlorsulfuron, chlorsulfuron]",40

# Same assay, conditions: Mutant 5; groups Strong, Intermediate, Weak, Zero
row,SMILES,"resistance group, Enzyme Assay"
1,"COc1cc(Cl)nc(NC(=O)NS(=O)(=O)c2ccccc2C(=O)O)n1 [Chlorimuron, chlorimuron]",Weak
2,"COc1nc(C)nc(NC(=O)NS(=O)(=O)c2ccccc2Cl)n1 [Chlorsulfuron, chlorsulfuron]",Weak

# Same assay, conditions: fold increase in resistance vs wild type, heterozygous Mutant 5; 30 min
row,SMILES,Fold Increase
1,"COc1cc(Cl)nc(NC(=O)NS(=O)(=O)c2ccccc2C(=O)O)n1 [Chlorimuron, chlorimuron]",5
2,"COc1nc(C)nc(NC(=O)NS(=O)(=O)c2ccccc2Cl)n1 [Chlorsulfuron, chlorsulfuron]",2

# System: Mutant 5 plants
# Test: Cross-resistance testing (glasshouse dose response), Mutant 5
# Format: in vivo, Zea mays
# Settings: pre-emergence spray, assessed after four weeks growth
# Text: as §7, §8, §9, §10, §11, §12, §13
row,SMILES,"resistance group, Dose Response"
1,"COc1cc(Cl)nc(NC(=O)NS(=O)(=O)c2ccccc2C(=O)O)n1 [Chlorimuron, chlorimuron]",Zero
2,"COc1nc(C)nc(NC(=O)NS(=O)(=O)c2ccccc2Cl)n1 [Chlorsulfuron, chlorsulfuron]",Weak

# System: Mutant 9 plants
# Test: Cross-resistance testing (glasshouse dose response), Mutant 9
# Format: in vivo, Zea mays
# Settings: pre-emergence spray, assessed after four weeks growth
# Text: as §7, §8, §9, §10, §11, §12, §13
row,SMILES,"resistance group, Dose Response"
1,"COc1cc(Cl)nc(NC(=O)NS(=O)(=O)c2ccccc2C(=O)O)n1 [Chlorimuron, chlorimuron]",Zero
2,"COc1nc(C)nc(NC(=O)NS(=O)(=O)c2ccccc2Cl)n1 [Chlorsulfuron, chlorsulfuron]",Weak and Zero

# From patent EP0472573B1, “HERBICIDE RESISTANT MAIZE” (ZENECA LIMITED, priority 1989, dated 1990)
